Reference: patent publication US20070207093A1, “Hydrazone derivatives and uses thereof” (Linquagen Corp., priority 2005, published 2007)

What was measured:
Type in all cases: cell-based
[1] = test system: membrane potential response (non-specific ion channel block); assay: KCl counterscreen (membrane potential dye, 10 mM KCl stimulation); conditions: Homo sapiens; 10 μM compound; same HEK293 TRPM5 cells; 10 mM KCl instead of ATP; read-out: KC1 Counterscreen (percent inhibition)
Protocol: (§1) Two counterscreen assays were run on separate cell plates utilizing the same cells as described above. In the calcium counterscreen, the cells were loaded with a calcium sensitive dye (Calcium3 Dye, Part no. 8090, Molecular Devices Corp.) and stimulated by ATP to check for compounds that block the GPCR-mediated calcium activation step. In the KCl counterscreen, cells are stimulated with 10 mM KCl instead of ATP to check for compounds that inhibit the membrane potential response by virtue of being non-specific ion channel blockers.
(§2) Unless otherwise indicated, the data in the table below were determined using the three assays described above, providing percent inhibition data at 10 μM.

[2] = target: T1, human TRPM5 (Homo sapiens, UniProt Q9NZQ8); assay: Whole-cell electrophysiology of TRPM5 current; conditions: HEK293; HEK cells stably transfected with human TRPM5, pre-treated with 10 μM; current activated by intracellular calcium dialysis (170 nM free calcium); FIG. 2B
T1 construct: expressed in transfected cells; host or cells: HEK cells, stably transfected
T1 sequence (Q9NZQ8 1-1165): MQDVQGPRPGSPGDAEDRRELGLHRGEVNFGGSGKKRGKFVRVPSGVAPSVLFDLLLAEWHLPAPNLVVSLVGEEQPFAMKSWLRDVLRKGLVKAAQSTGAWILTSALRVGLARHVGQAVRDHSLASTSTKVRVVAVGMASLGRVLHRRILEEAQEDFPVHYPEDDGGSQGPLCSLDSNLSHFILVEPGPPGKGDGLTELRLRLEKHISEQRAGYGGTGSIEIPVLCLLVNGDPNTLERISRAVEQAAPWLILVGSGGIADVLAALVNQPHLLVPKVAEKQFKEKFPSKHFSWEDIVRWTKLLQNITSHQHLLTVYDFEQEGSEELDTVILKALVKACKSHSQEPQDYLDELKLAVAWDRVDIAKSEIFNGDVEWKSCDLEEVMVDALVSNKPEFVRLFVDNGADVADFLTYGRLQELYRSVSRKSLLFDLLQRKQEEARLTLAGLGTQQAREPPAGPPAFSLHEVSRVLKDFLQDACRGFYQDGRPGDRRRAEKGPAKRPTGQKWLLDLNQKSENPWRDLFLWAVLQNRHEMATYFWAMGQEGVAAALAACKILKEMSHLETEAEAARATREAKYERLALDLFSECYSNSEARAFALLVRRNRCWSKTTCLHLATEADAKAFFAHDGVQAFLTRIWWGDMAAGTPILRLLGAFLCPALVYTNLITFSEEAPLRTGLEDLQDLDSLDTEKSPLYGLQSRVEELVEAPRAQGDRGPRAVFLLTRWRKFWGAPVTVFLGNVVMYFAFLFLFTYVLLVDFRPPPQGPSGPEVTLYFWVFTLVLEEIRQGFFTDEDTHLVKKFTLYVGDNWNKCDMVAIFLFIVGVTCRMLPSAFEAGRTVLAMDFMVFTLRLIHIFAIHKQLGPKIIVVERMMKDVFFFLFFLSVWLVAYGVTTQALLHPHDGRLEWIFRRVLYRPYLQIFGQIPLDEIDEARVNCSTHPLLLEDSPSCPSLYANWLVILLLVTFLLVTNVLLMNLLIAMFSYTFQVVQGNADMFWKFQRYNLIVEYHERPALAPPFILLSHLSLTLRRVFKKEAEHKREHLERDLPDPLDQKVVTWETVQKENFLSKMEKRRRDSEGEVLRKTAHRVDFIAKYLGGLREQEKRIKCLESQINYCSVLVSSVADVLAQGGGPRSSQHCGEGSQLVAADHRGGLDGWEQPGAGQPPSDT
Protocol: Standard whole-cell recordings were obtained from HEK cells stably transfected with human TRPM5. Internal solution contained 135 mM CsGlutamate, 10 mM HEPES, 2 mM MgATP, 5 mM CaCl2 and 10 mM EGTA. External solution was HBSS (Gibco) buffered with 20 mM HEPES to pH 7.2. Currents were recorded with Multiclamp 700B amplifier using PClamp software; filered at 1 kHz, sampled at 5 kHz. Holding potential was −80 mV. TRPM5 current was activated by intracellular calcium dialysis (170 nM free calcium) and sampled with 200 ms ramps from −80 to 80 mV at 1 Hz. Current amplitudes were measured at −80 and 80 mV potted versus time.

[3] = target: T2, human TRPM5 ion channel (Homo sapiens, UniProt Q9NZQ8); assay: TRPM5 FLIPR membrane potential screening assay (ATP stimulation); conditions: 10 μM compound; HEK293 cells stably expressing human TRPM5; 3 μM ATP stimulation; versus negative control wells; read-out: TRPM5 Activity (percent inhibition)
T2 construct: expressed in transfected cells
T2 sequence (Q9NZQ8 1-1165): T1 sequence (Q9NZQ8 1-1165)
Protocol: The activity of human TRPM5 ion channel was measured in live cells on a fluorescent imaging plate reader (FLIPR). The basis of the assay (shown in FIG. 1) is the calcium-dependent activation of the ion channel which occurs via by activation of a G-protein coupled receptor (GPCR). GPCR activation by an appropriate agonist causes a transient increase in […] Ca^2+ ion concentration which in turn causes the ion channel to open, letting in Na^+ ions. This influx causes a change in the membrane potential of the cell which can be monitored as a change in the fluorescent signal from voltage-dependent (membrane potential) fluorescent dyes.
For the screening assay, the human TRPM5 gene was cloned, put into HEK293 cells, and a stable, high expression clone was used for screening. Cells were grown in standard media at 37° C. The day before screening, the cells were removed from flasks and added to 384 well clear bottom plates (8K cells in 20 μL/well). On the assay day, 20 μL of membrane potential dye (Part No. R8123, Molecular Devices Corp.) was added to the cells and dye was allowed to be taken up, i.e., load, into the cells for 1 hr at 37° C. […] The assay was started by addition of 10 μL of solution from the compound plate into the cell plate. During this process, continuous fluorescent recordings were made simultaneously for all wells. After addition of the compound solution, the tips were automatically washed and a stimulation solution of 3 μM ATP (an agonist for an endogenous purinurgic GPCR, was added to all wells of the cell plate. The height of the response was calculated and percent inhibition values, versus negative control wells, was calculated for the test samples.
as §2

[4] = test system: GPCR-mediated calcium activation step; assay: Calcium counterscreen (calcium sensitive dye, ATP stimulation); conditions: Homo sapiens, 10 μM compound, same HEK293 TRPM5 cells, Calcium3 dye, read-out: Calcium Counterscreen (percent inhibition)
Protocol: as §1, §2

inhibition at 10 µM [2]: > 90% | inhibition at 10 µM [3]: 97%
SMILES: COc1ccc(/C=N/NC(=O)Cc2cccc3ccccc23)cc1OC [Example 3, (E)-N′-(3,4-Dimethoxybenzylidene)-2-(naphthalene-1-yl)acetohydrazide]
inhibition at 10 µM [1]: 6% | inhibition at 10 µM [4]: 2%
